A short description of series [1]: Determination of pKa (capillary electrophoresis, Analiza). The series is classed as physicochemical. The conditions noted are these: most basic pKa, mean.
Series [2] is described as follows: High throughput determination of intrinsic clearance in human hepatocytes. The series is classed as in vitro ADME. The note with it: human, pooled cryopreserved human hepatocytes (suspension), high throughput human hepatocyte assay, 1 μM test compound; mean +/− Std Dev. Here is the method:
The incubation was carried out at 37° C. […] The samples were centrifuged (Eppendorf, Hauppauge, N.Y.) at 3000 rpm for 5 min at 4° C.

Series [3] can be described thus: Intrinsic clearance in human liver microsomes. The note with it: human, pooled human liver microsomes, pH 7.4, human liver microsome assay, 1 μM test compound; mean +/− STD Dev. It is filed as in vitro ADME. The procedure:
The incubations were conducted at 37° C. […] (Sorvall R C 3C Plus, Thermo Scientific, Waltham, Mass.).
A general note: Liver microsomes are vesicles of endoplasmic reticulum, rich in cytochrome P450 enzymes.

Structures can show the parent of a compound that is named as a salt.

These results are taken from US11065249B2, “Diacylglycerol acyl transferase 2 inhibitor” (Pfizer Inc., priority 2019, dated 2021).

One may read the pKa as the pH at which an ionisable group is half protonated. Usually hepatocyte CLint stands for the rate of metabolic loss divided by the concentration. The low end stands for greater metabolic stability, the high end for faster metabolism. The microsomal CLint is a measure of how fast metabolising enzymes remove a compound, apart from limits set by blood flow. Read a high microsomal CLint as rapid turnover. As for `CCOc1cccnc1Oc1cncc(-c2ncc(C(=O)NC3CNCC(F)(F)C3)cn2)c1` (stereo not shown) [Example 17, N-(5,5-difluoropiperidin-3-yl)-2-{5-[(3-ethoxypyridin-2-yl)oxy]pyridin-3-yl}pyrimidine-5-carboxamide], the pKa in series [1] was found to be 5.4. In addition, the hepatocyte CLint at 1 μM in series [2] came to 8.3 µL/min/1e6 cells. Also, the microsomal CLint at 1 μM in series [3] turned out to be 23 µL/min/mg.

As for `CCOc1cccnc1Oc1cncc(-c2ncc(C(=O)NC3CCCNC3)cn2)c1` (stereo not shown) [Example 21, 2-{5-[(3-ethoxypyridin-2-yl)oxy]pyridin-3-yl}-N-(piperidin-3-yl)pyrimidine-5-carboxamide, trifluoroacetate salt], the microsomal CLint at 1 μM in series [3] was less than 8 µL/min/mg.

In the case of `CCOc1cccnc1Oc1cncc(-c2ncc(C(=O)NC3CCCNC3C)cn2)c1` (mixture of isomers) [Example 23, 2-{5-[(3-ethoxypyridin-2-yl)oxy]pyridin-3-yl}-N-(2-methylpiperidin-3-yl)pyrimidine-5-carboxamide, trifluoroacetate salt, mixture of stereoisomers], in series [3], the microsomal CLint at 1 μM is less than 8 µL/min/mg.

In turn, `CCOc1cc(F)cnc1Oc1cncc(-c2ncc(C(=O)N[C@@H]3CNCC[C@H]3F)cn2)c1` [Example 6, 2-{5-[(3-Ethoxy-5-fluoropyridin-2-yl)oxy]pyridin-3-yl}-N-[(3R,4R)-4-fluoropiperidin-3-yl]pyrimidine-5-carboxamide] showed a pKa in series [1] of 7.4. The compound also gave a hepatocyte CLint at 1 μM in series [2] of 4.7 µL/min/1e6 cells. Also, in series [3], the microsomal CLint at 1 μM was less than 7.8 µL/min/mg.

Compound `CCOc1cc(F)cnc1Oc1cncc(-c2ncc(C(=O)N[C@H]3CNCC[C@@H]3F)cn2)c1` [Example 13, 2-{5-[(3-ethoxy-5-fluoropyridin-2-yl)oxy]pyridin-3-yl}-N-[(3S,4S)-4-fluoropiperidin-3-yl]pyrimidine-5-carboxamide, formate salt] yielded a pKa in series [1] of 6.7. In series [2], this compound displayed a hepatocyte CLint at 1 μM of 12 µL/min/1e6 cells. Further, the microsomal CLint at 1 μM in series [3] was determined as 35 µL/min/mg.

Take `CCOc1cccnc1Oc1cncc(-c2ncc(C(=O)N[C@H]3CNCCC3(F)F)cn2)c1` (single isomer, unassigned) [Example 15, N-[(3S)-4,4-difluoropiperidin-3-yl]-2-{5-[(3-ethoxypyridin-2-yl)oxy]pyridin-3-yl}pyrimidine-5-carboxamide, trifluoroacetate salt or N-[(3R)-4,4-difluoropiperidin-3-yl]-2-{5-[(3-ethoxypyridin-2-yl)oxy]pyridin-3-yl}pyrimidine-5-carboxamide, trifluoroacetate salt]: the intrinsic clearance (hepatocyte CLint) at 1 μM in series [2] amounted to 5.3 µL/min/1e6 cells. Moreover, in series [3], the microsomal CLint at 1 μM is 21 µL/min/mg.

With `CCOc1cccnc1Oc1cncc(-c2ncc(C(=O)N[C@@H]3CNCC(F)(F)C3)cn2)c1` (single isomer, unassigned) [Example 18, N-[(3S)-5,5-difluoropiperidin-3-yl]-2-{5-[(3-ethoxypyridin-2-yl)oxy]pyridin-3-yl}pyrimidine-5-carboxamide or N-[(3R)-5,5-difluoropiperidin-3-yl]-2-{5-[(3-ethoxypyridin-2-yl)oxy]pyridin-3-yl}pyrimidine-5-carboxamide], the pKa in series [1] stood at 5.2. This compound had a hepatocyte CLint at 1 μM in series [2] of 9.3 µL/min/1e6 cells. The compound further gave an intrinsic clearance (microsomal CLint) at 1 μM in series [3] of 19 µL/min/mg.

In turn, `CCOc1cccnc1Oc1cncc(-c2ncc(C(=O)N[C@H]3CCCNC3)cn2)c1` [Example 14, 2-{5-[(3-ethoxypyridin-2-yl)oxy]pyridin-3-yl}-N-[(3S)-piperidin-3-yl]pyrimidine-5-carboxamide, trifluoroacetate salt] displayed a hepatocyte CLint at 1 μM in series [2] of less than 1.8 µL/min/1e6 cells. The compound further returned a microsomal CLint at 1 μM in series [3] of less than 8 µL/min/mg.

`CCOc1cccnc1Oc1cncc(-c2ncc(C(=O)N[C@@H]3CCCNC3)cn2)c1` [Example 22, 2-{5-[(3-ethoxypyridin-2-yl)oxy]pyridin-3-yl}-N-[(3R)-piperidin-3-yl]pyrimidine-5-carboxamide, trifluoroacetate salt] came in with a microsomal CLint at 1 μM in series [3] of less than 8 µL/min/mg.
